# Like-named read-outs stand apart in the source and are kept apart here.
# How the values were obtained:
# Mtb FtsZ = Mtb FtsZ (Mycobacterium tuberculosis, UniProt P9WN95); experiment: biochemical; assay type: biochemical; details: mean ± standard deviation, at least three times per assay; NA = not active up to 100 μM; read-out: Mtb FtsZ Polymerization IC50
# tubulin = experiment: Tubulin polymerization assay; assay type: biochemical, human; details: for effect on human tubulin: at 100 μM
# Mtb H37Ra (ATCC 25177) = experiment: In vitro screen versus Mtb H37Ra (Alamar blue microdilution broth assay, MIC99); assay type: cell-based, M. tuberculosis; details: Mycobacterium tuberculosis
# Procedure: The initial screening set and selected other compounds were tested for their inhibitory activity against Mtb H37Ra (ATCC 25177) and MAC NJ211 strains. Screening was performed at 1.28 and 12.8 μg/mL in Middlebrook 7H9 broth supplemented with 0.2% glycerol and ADC enrichment using a colorimetric (Alamar blue) microdilution broth assay by reported methods.[15]
# MAC NJ211 = experiment: In vitro screen versus MAC NJ211 (Alamar blue microdilution broth assay, MIC99); assay type: cell-based; details: lowest drug concentration that completely inhibited growth; for MIC99: read-out: MAC NJ211 MIC99
# Mtb H37Rv [1] = experiment: TAACF Alamar blue assay against Mtb H37Rv (IC90); assay type: cell-based, M. tuberculosis; details: Mycobacterium tuberculosis
# [2] = Acute toxicity mouse model; assay type: in vivo, mice; details: single dose of 300 mg/kg
# in vitro = details: African green monkey
# [3] = Rapid PK mouse model (bioavailability); details: mice, oral gavage, 300 mg/kg
# [4] = Cytotoxicity (CC50) in Vero cells, TAACF; details: African green monkey
# Vero cells = experiment: Cytotoxicity (CC50) in Vero cells, TAACF; details: CC50 in Vero cells to IC90 against Mtb H37Rv
# Mtb H37Rv [5] = experiment: In vitro qHTS assay against Mtb H37Rv (IC90); assay type: cell-based, M. tuberculosis; details: Mycobacterium tuberculosis, H37RV; concentration that inhibits bacterial growth by 90%; read-out: Mtb H37Rv IC90
# [6] = cited from earlier work
# [7] = test system: M. tuberculosis 41 (Mtb 41) FtsZ reporter strain; assay type: cell-based
# [8] = lowest drug concentration that completely inhibited growth, read-out: Mtb H37Ra MIC99
# [9] = same MIC99 given in μM, read-out: Mtb H37Ra MIC99 (concentration in μM in parentheses)
# Sequence of Mtb FtsZ (P9WN95 whole entry): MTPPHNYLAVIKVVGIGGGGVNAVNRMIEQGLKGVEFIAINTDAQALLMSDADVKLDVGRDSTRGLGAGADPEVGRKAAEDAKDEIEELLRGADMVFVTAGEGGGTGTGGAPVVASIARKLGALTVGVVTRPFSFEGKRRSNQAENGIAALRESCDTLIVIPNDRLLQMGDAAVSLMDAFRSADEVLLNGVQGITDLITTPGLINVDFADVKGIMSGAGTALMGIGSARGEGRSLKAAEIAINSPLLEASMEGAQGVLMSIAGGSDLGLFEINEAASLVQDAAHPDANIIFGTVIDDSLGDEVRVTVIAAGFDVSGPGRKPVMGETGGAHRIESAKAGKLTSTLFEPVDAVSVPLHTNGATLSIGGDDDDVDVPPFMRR
smiles,measurement,setting,value
"CC[n+]1c(/C=C/N(C)c2ccccc2)n(-c2ccccc2)c2ccc(-c3nc4ccccc4s3)cc21 [Compound 8, Zantrin Z2]",IC50,Mtb FtsZ,3.5 ± 0.3 µM
same,IC50,"tubulin; mean ± standard deviation, at least three times per assay, NA = not active up to 100 μM",> 100 µM
same,MIC,Mtb H37Ra (ATCC 25177); lowest drug concentration that completely inhibited growth,1 µg/mL
same,MIC,MAC NJ211,1 µg/mL
same,IC90,Mtb H37Rv [1]; read-out: Mtb H37Rv IC90,1.56 µg/mL
same,IC90,Mtb H37Rv [1]; read-out: Mtb H37Rv IC90 (concentration in µM in parentheses),3.2 µM
same,ill effects to the mice,[2],no ill effects
same,CC50,in vitro,1.7 µg/mL
same,Bioavailability,[3],no bioavailability and None
same,CC50,[4],3.49 µM
same,Selectivity Index (CC50/IC90),Vero cells,1.09
"CSc1ccc(/C=C2/C(C)=C(CC(=O)NCCN(C)C)c3cc(F)ccc32)cc1 [Compound 18, (Z)-N-(2-(dimethylamino)ethyl)-2-(5-fluoro-2-methyl-1-(4-(methylthio)benzylidene)-1H-inden-3-yl)acetamide]",IC50,Mtb FtsZ,39.4 ± 4.9 µM
same,effect on human tubulin,tubulin,no effect
same,effect on human tubulin,tubulin; listed as SSA,no inhibition
same,MIC99,Mtb H37Ra (ATCC 25177); [8],8 µg/mL
same,MIC99,Mtb H37Ra (ATCC 25177); [9],19.5 µM
same,MIC99,MAC NJ211,16 µg/mL
same,IC90,Mtb H37Rv [5],7.29 ± 0.23 µM
same,tolerated dose in mice,[6]; over 17 days,up to 300 mg/kg
"COc1cc(/C=C2\C=C(CC(=O)NCCN3CCCC3)c3cc(F)ccc32)cc(OC)c1OC [Compound 63, (E)-2-(5-fluoro-1-(3,4,5-trimethoxybenzylidene)-1H-inden-3-yl)-N-(2-(pyrrolidin-1-yl)ethyl)acetamide]",IC50,Mtb FtsZ,37.6 ± 5.7 µM
same,MIC99,Mtb H37Ra (ATCC 25177); [8],32 µg/mL
same,MIC99,Mtb H37Ra (ATCC 25177); [9],68.5 µM
same,MIC99,MAC NJ211,> 64 µg/mL
same,IC90,Mtb H37Rv [5],25.5 ± 0.33 µM
same,FtsZ ring assembly in Mtb 41,[7],inhibit FtsZ ring assembly
same,growth of Mtb 41,[7],significant growth inhibition
same,bacterial cell length of Mtb 41,"[7]; 75 μM, brightfield microscopy",clear increase in bacterial cell length
"CSc1ccc(/C=C2/C(C)=C(CC(=O)O)c3cc(F)ccc32)cc1 [Sulindac sulfide, reference compound]",tolerated dose in mice,[6]; over 20 days,up to 50 mg/kg
